Experimental data published in patent publication US9474759B2 (priority 2011, dated 2016).
Where two headings read alike, the source gives them in different places.

Experiments:
[1] = tested on: FCV; test: Cell-based screening, FCV in CRFK cells (Example 2); details: Feline calicivirus, CRFK, read-out: Inhibition [ED50 (μM)] against various viruses: Calicivirus, FCV
Method: (§1) 3. Cell-based screening of inhibitor. The effects of each inhibitor on the viral replication were examined. The list of viruses and corresponding cell lines are listed above in Table 2. Briefly, confluent cells were inoculated with virus at a MOI of 5 or 0.05 for 1 hr, and medium was replaced with medium containing mock-medium or each compound (up to 100 μM). The virus infected cells were further incubated for up to 96 hrs, and the replication of virus was measured by TCID50 assay with the 10-fold dilution of each sample used for virus titration (Reed and Muench, 1938). In some viruses, the virus protein and genome expression levels were detected by Western blot analysis and real-time qRT-PCR, respectively, as described below. The IC50s of the compounds were calculated.

[2] = molecular target: T1, MD145 3CLpro (codon-optimized, full-length, N-terminal 6 His, recombinant) (Lordsdale virus, UniProt P54634); test: biochemical; parameters: species or system norovirus strain MD145 (human norovirus GII)
[3] = tested on: FIPV; test: Cell-based screening, FIPV in CRFK cells (Example 2); parameters: species or system feline infectious peritonitis virus; details: Alphacoronavirus 1, CRFK, read-out: Inhibition [ED50 (μM)] against various viruses: Coronavirus, FIPV
Method: as §1

[4] = tested on: HAV; test: Cell-based screening, HAV (Example 2); parameters: species or system hepatitis A virus; details: Picornaviridae, read-out: Inhibition [ED50 (μM)] against various viruses: Picornavirus, HAV
Method: as §1

[5] = tested on: Teschovirus; test: organism not typed; assay type: cell-based, porcine teschovirus; details: read-out: Inhibition [ED50 (μM)] against various viruses: Picornavirus, Teschovirus
[6] = tested on: Norwalk virus (HG23 cells); test: microbe, parasite or virus in culture; assay type: cell-based; details: HG23, read-out: Inhibition [ED50 (μM)] against various viruses: Calicivirus, HG23 cells
[7] = molecular target: SARS-CoV 3CLpro (codon-optimized, N-terminal 6 His, recombinant) (Severe acute respiratory syndrome coronavirus, UniProt P0C6X7); test: biochemical
[8] = tested on: 229E; test: Cell-based screening, 229E in MRC-5 cells (Example 2); details: Human coronavirus 229E, MRC5, read-out: Inhibition [ED50 (μM)] against various viruses: Coronavirus, 229E
Method: as §1

[9] = tested on: FCV; test: Cell culture system, FCV replication in CRFK cells (Example 3); assay type: cell-based, feline calicivirus; details: CRFK cells
[10] = PK and oral bioavailability studies in rats; details: 20 mg/Kg (body weight), IV or PO
[11] = molecular target: HAV 3Cpro (Human hepatitis A virus genotype IB, UniProt P08617); test: Optimized FRET protease assay, HAV 3Cpro (Example 3); assay type: biochemical
Method: Fluorogenic substrates with Edans and Dabcyl as a donor and quencher pair were purchased from Bachem (coronavirus substrate) or synthesized by GenScript. The viral proteases and the corresponding fluorogenic substrates are listed in Table 5, along with their sources.
Stock solutions (10 mM) of the substrates and the compounds were prepared in dimethyl sulfoxide (DMSO) and diluted in assay buffer. The assay buffer comprised 20 mM HEPES buffer containing NaCl (0 mM for HAV 3Cpro and 200 mM for all other proteases), 0.4 mM EDTA, Glycerol (60% for NV and MD145 3CLpro and 30% for TGEV and 229E 3CLpro), and 6 mM (NV and MD145 3CLpro and HAV 3Cpro)_or 4 mM (all other proteases) dithiothreitol (DTT) at pH 6 (coronavirus 3CLpro) or 8 (all other proteases). Each protease was mixed with serial dilutions of each compound or with DMSO in 25 μl of assay buffer and incubated at 37° C. for 30 min, followed by the addition of 25 μl of assay buffer containing substrate. Fluorescence readings were obtained using an excitation wavelength of 360 nm and an emission wavelength of 460 nm on a fluorescence microplate reader (FLx800; Biotek, Winooski, Vt.) at 1 h following the addition of substrate. The relative fluorescence units (RFU) were determined by subtracting background values (substrate-containing well without protease) from the raw fluorescence values. […]

[12] = tested on: 3CLpro of NV, MD145, MNV-1; assay type: biochemical, norovirus; details: optimized FRET-based protease assay
[13] = tested on: EV71; test: Cell-based screening, EV71 in Vero cells (Example 2); parameters: species or system enterovirus 71; details: Enterovirus A, EV71, Vero, read-out: Inhibition [ED50 (μM)] against various viruses: Picornavirus, EV71
Method: as §1

[14] = molecular target: HAV 3Cpro (full-length, 6 His, recombinant) (Human hepatitis A virus genotype IB, UniProt P08617); test: biochemical; parameters: species or system human hepatitis A virus (strain HM175)
[15] = tested on: MHV; test: Cell-based screening, MHV in CCL-9.1 cells (Example 2); parameters: species or system mouse hepatitis virus; details: Murine coronavirus, read-out: Inhibition [ED50 (μM)] against various viruses: Coronavirus, MHV
[16] = molecular target: Norwalk virus 3CL protease (Norovirus, UniProt Q83883); test: Recombinant NV protease fluorogenic substrate inhibition assay (Example 1); assay type: biochemical; details: 30 min pre-incubation, 30° C., pH 8.0
Method: After a 30 minute incubation period, 5 μL of 12 μM Edans-[…]-Dabcyl (SEQ ID NO:1) substrate in DMSO was then added and the increase in fluorescence was monitored for 30 minutes at an excitation and emission wavelength of 360 and 460 nm, respectively. Using a HORIBA FluoroMax 4 spectrofluorometer. Hydrolysis curves were linear. The final enzyme and substrate concentrations were 2.5 μM and 300 nM, respectively. […] Furthermore, the nature of the cap was also important (compare, for example, inhibitors A and D).

[17] = tested on: MNV-1; test: Cell culture system, MNV-1 replication in RAW267.4 cells (Example 3); assay type: cell-based, murine norovirus; details: RAW267.4 cells
[18] = tested on: TGEV; test: Cell-based screening, TGEV in ST cells (Example 2); parameters: species or system transmissible gastroenteritis virus; details: Alphacoronavirus 1, read-out: Inhibition [ED50 (μM)] against various viruses: Coronavirus, TGEV
Method: as §1

[19] = molecular target: recombinant 3C or 3CL of MD145 (Norovirus Hu/GII.4/MD145-12/1987/US (Maryland virus), UniProt Q8V0P3); test: FRET protease assay, MD145 3CL (Example 2); assay type: biochemical, norovirus strain MD145
[20] = tested on: MNV-1; test: Cell-based screening, MNV-1 in RAW267.4 cells (Example 2); parameters: species or system murine norovirus; details: Norwalk virus, RAW267.4, read-out: Inhibition [ED50 (μM)] against various viruses: Calicivirus, MNV-1
Method: as §1

[21] = molecular target: HRV 3Cpro (recombinant, purchased from EMD chemicals) (Human rhinovirus 14, UniProt P03303); test: biochemical
[22] = molecular target: NV 3CLpro (codon-optimized, full-length, N-terminal 6 His, recombinant) (Norovirus, UniProt Q83883); test: biochemical; parameters: species or system norovirus strain Norwalk
[23] = molecular target: PV 3Cpro (codon-optimized, N-terminal 6 His, recombinant) (Poliovirus type 1, UniProt P03300); test: biochemical; parameters: species or system poliovirus (poliomyelitis virus)
[24] = molecular target: T1, MD145 3CLpro (codon-optimized, full-length, N-terminal 6 His, recombinant); test: biochemical; parameters: species or system norovirus strain MD145

T1 sequence (P54634 1009-1189): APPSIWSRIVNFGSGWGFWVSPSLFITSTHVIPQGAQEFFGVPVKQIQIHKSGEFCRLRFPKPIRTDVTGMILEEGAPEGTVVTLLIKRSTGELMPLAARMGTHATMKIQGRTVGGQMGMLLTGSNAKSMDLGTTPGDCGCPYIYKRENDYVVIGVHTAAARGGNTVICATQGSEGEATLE
Sequence of recombinant 3C or 3CL of MD145 (Q8V0P3 entry or part of it): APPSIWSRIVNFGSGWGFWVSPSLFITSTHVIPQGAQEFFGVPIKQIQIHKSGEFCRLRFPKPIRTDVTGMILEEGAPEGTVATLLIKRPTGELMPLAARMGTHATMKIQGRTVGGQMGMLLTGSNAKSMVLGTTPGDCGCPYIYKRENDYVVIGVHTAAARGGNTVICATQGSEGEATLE
Sequence of HAV 3Cpro (full-length, 6 His, recombinant) (P08617 1520-1738): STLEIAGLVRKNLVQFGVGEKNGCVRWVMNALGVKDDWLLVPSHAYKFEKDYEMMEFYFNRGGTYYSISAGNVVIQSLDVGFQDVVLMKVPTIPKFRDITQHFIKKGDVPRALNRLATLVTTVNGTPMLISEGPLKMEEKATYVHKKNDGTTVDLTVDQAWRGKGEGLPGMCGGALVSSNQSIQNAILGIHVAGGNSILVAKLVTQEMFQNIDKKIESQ
Sequence of HAV 3Cpro (P08617 1520-1738): as above
Sequence of HRV 3Cpro (recombinant, purchased from EMD chemicals) (P03303 1538-1719): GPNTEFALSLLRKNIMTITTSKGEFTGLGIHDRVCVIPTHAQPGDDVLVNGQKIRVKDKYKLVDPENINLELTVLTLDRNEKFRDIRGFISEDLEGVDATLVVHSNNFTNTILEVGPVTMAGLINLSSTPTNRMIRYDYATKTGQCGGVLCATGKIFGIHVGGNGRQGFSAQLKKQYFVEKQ
Sequence of PV 3Cpro (codon-optimized, N-terminal 6 His, recombinant) (P03300 1566-1748 limits assumed): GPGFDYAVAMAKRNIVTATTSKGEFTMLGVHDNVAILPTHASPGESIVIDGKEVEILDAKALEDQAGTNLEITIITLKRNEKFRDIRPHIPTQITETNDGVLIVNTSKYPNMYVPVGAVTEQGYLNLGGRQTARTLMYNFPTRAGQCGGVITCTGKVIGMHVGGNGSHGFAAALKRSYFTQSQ
Sequence of NV 3CLpro (codon-optimized, full-length, N-terminal 6 His, recombinant) (Q83883 1101-1281): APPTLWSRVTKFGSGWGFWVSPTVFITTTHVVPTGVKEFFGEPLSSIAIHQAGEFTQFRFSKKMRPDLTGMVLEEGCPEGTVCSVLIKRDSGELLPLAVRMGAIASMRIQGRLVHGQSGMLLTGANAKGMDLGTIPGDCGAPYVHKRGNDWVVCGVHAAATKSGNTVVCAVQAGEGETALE
Sequence of Norwalk virus 3CL protease (Q83883 1101-1281): as above

CC(C)C[C@H](NC(=O)OCc1ccccc1)C(=O)N[C@@H](CC1CCNC1=O)C(=O)C(=O)NC(C)C (stereo partly drawn) [GC375]
EC50 [1]: 4.5 µM
IC50 [2]: 4.03 µM
EC50 [3]: 1.5 µM
EC50 [4]: 20 µM
EC50 [5]: 0.2 µM
EC50 [6]: 3.2 µM
IC50 [7]: 4.66 ± 0.19 µM
EC50 [8]: 0.15 µM
antiviral effects against FCV: no effects at concentrations up to [9]: > 50 µM
oral bioavailability, % F [10]: 16 % F
inhibitory effect on HAV 3Cpro (in words) [11]: weak but appreciable inhibitory effects
effect on the activity of 3CLpro of NV, MD145, MNV-1 (in words) [12]: lower than those of GC373 and GC376
EC50 [13]: 15 µM
IC50 [14]: 42.6 ± 2.61 µM
EC50 [15]: 4.5 µM
inhibitory activity against Norwalk virus 3CL protease (in words) [16]: devoid of inhibitory activity
antiviral effects against MNV-1: no effects at concentrations up to [17]: > 50 µM
EC50 [18]: 0.2 µM
IC50 [19]: 6.4 µM
EC50 [20]: 85 µM

CCOC(=O)/C=C/[C@H](C[C@@H]1CCNC1=O)NC(=O)[C@@H](CC(=O)[C@@H](NC(=O)c1cc(C)on1)C(C)C)Cc1ccc(F)cc1 [Rupintrivir, reference compound]
IC50 [21]: 340 ± 50 nM
IC50 [22]: 830 ± 190 nM
IC50 [23]: 1830 ± 380 nM
IC50 [24]: 700 ± 190 nM
